Measured values as given in article PMC12300992, “A Machine Learning Platform for Isoform-Specific Identification and Profiling of Human Carbonic Anhydrase Inhibitors” (Pharmaceuticals, 2025).

What was measured:
hCA I = hCA I (Homo sapiens, UniProt P00915); assay: CO2 hydrase stopped-flow inhibition assay, hCA I; conditions: for experimental activity class hCA I: Table S2, Ki threshold of 1 µM
Method: (§1) The ionic strength was maintained at a constant using 0.1 M Na2SO4 or NaClO4, as these anions are non-inhibitory at the concentration employed. […] Inhibitor stock solutions were prepared at a concentration of 10 mM in 1:1, v/v DMSO/water mixture and were subsequently diluted up to 0.01 nM in the assay buffer. To determine the inhibition constant (Ki), at least seven different inhibitor concentrations were tested. The enzyme and the inhibitor were pre-incubated for 15 min to allow the complete formation of the enzyme-inhibitor complex. Each inhibitor concentration was tested in triplicate, and the values reported throughout the study represent the mean of these replicates. […] These enzyme concentrations were measured by titration with ethoxzolamide and spectrophotometrically for CA I and II.

hCA XII = hCA XII (Homo sapiens, UniProt O43570); assay: CO2 hydrase stopped-flow inhibition assay, hCA XII; conditions: for experimental activity class hCA XII: Table S2, Ki threshold of 1 µM
hCA XII, sequence (O43570 25-354): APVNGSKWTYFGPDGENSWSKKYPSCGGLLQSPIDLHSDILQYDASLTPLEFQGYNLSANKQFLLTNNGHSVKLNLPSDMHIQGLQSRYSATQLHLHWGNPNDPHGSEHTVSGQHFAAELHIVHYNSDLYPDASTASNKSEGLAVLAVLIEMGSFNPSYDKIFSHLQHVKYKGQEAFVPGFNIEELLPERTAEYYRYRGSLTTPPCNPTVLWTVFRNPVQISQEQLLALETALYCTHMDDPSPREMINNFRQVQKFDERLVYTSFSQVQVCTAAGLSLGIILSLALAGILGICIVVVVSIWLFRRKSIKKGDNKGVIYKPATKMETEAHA
Method: as §1

hCA II = hCA II (Homo sapiens, UniProt P00918); assay: CO2 hydrase stopped-flow inhibition assay, hCA II; conditions: for experimental activity class hCA II: Table S2, Ki threshold of 1 µM
Method: as §1

hCA IX = hCA IX (Homo sapiens, UniProt Q16790); assay: CO2 hydrase stopped-flow inhibition assay, hCA IX; conditions: for experimental activity class hCA IX: Table S2, Ki threshold of 1 µM
Method: as §1

α-amylase = system: α-amylase; parameters: method as in PMID 26395057; conditions: cited from earlier work
bacterial DNA gyrase B = system: bacterial DNA gyrase B; parameters: method as in PMID 20045642; conditions: cited from earlier work
[1] = system: Z mutant (Glu342Lys) of α1-antitrypsin; parameters: method as in PMID 17918823; conditions: cited from earlier work

hCA I, sequence (P00915 whole entry): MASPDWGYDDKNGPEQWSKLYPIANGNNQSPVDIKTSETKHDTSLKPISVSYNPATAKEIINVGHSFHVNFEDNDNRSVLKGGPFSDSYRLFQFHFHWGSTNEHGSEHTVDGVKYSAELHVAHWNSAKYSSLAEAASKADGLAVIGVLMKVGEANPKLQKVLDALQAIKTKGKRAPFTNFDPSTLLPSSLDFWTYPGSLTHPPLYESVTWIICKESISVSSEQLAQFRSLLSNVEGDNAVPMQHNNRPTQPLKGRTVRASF

SMILES	Ki (hCA I) [nM]	experimental activity class hCA I (hCA I)	Ki (hCA XII) [nM]	experimental activity class hCA XII (hCA XII)	Ki (hCA II) [nM]	experimental activity class hCA II (hCA II)	Ki (hCA IX) [nM]	experimental activity class hCA IX (hCA IX)	inhibitory activity against α-amylase (α-amylase)	bacterial DNA gyrase B inhibition (bacterial DNA gyrase B)	effect on rate of polymerization of Z α1-antitrypsin [1]	selectivity for hCA II over hCA I (hCA II; hCA II vs hCA I)
O=S(=O)(Nc1cccc(C(F)(F)F)c1)c1cc(Cl)ccc1Cl [Compound 10]	31600	Inactive	> 100000	Inactive	> 100000	Inactive	> 100000	Inactive	–	–	–	–
NS(=O)(=O)c1ccc(Nc2nc(-c3ccc(O)cc3O)cs2)cc1 [Compound 12]	1080	Inactive	648	Active	151	Active	313	Active	promising inhibitory activity	inhibitor	reduce the rate of polymerization	–
O=C(Nn1cnnc1)c1cccc(S(=O)(=O)Nc2cc(C(F)(F)F)ccc2Cl)c1 [Compound 3]	> 100000	Inactive	> 100000	Inactive	> 100000	Inactive	> 100000	Inactive	–	–	–	–
NS(=O)(=O)c1ccc(CCNC(=O)C/C=C2/NC(=O)c3c(sc4c3CCCC4)N2)cc1 [Compound 2]	1020	Inactive	30.6	Active	11.6	Active	713	Active	–	–	–	–
CCOc1ccccc1C(=O)Nc1nc2ccc(S(N)(=O)=O)cc2s1 [Compound 11]	666	Active	49.4	Active	16.4	Active	73.7	Active	–	–	–	–
NS(=O)(=O)c1ccc(OCCn2ccnc2)cc1 [Compound 4]	36.2	Active	603	Active	6.8	Active	2520	Inactive	–	–	–	approximately five times more active
